Where two headings read alike, the source gives them in different places.
How the values were obtained:
Type in all cases: cell-based
[1] = tested on: MCF-7 cells (human breast adenocarcinoma); test: MTT cytotoxicity test, MCF-7; details: Homo sapiens, MCF7, MTT test; 24 h incubation per text, 48 h per method
Protocol: (§1) The cytotoxic effect on cells was determined using the colorimetric method of cell proliferation—the MTT test. NADP-H-dependent cellular oxidoreductase enzymes can, under certain conditions, reflect the number of viable cells. These enzymes are able to reduce the tetrazolium dye (MTT)-3-(4,5-dimethylthiazol-2-yl)-2,5-diphenyl-tetrazolium bromide to insoluble blue-violet formazan, which crystallizes inside the cell. The amount of formazan formed is proportional to the number of cells with active metabolism.
Formazan crystals were added to 100 µL of DMSO in each well. Optical density was recorded at 540 nm on an in vitro logic microplate reader (Russia). The experiments for all compounds were repeated in triplicate.

[2] = tested on: SH-SY5Y cells (neuroblastoma); test: MTT cytotoxicity test, SH-SY5Y; details: Homo sapiens, SH-SY5Y; MTT test; 24 h incubation per text, 48 h per method
From the text: (§2) For the experiments, we used tumor cell cultures M-HeLa clone 11 (epithelioid carcinoma of the cervix, subline HeLa., clone M-HeLa), HuTu 80 (human duodenal adenocarcinoma) and MCF7 (human breast adenocarcinoma (pleural fluid)) from the collection of the Institute of Cytology, Russian Academy of Sciences (St. Petersburg); human liver cells (Chang liver) from the collection of the Research Institute of Virology at the Russian Academy of Medical Sciences (Moscow); and SH-SY5Y (neuroblastoma)from the Laboratory of Tumor Cell Genetics at the Scientific Research Institute of Carcinogenesis N.N. Blokhin National Medical Research Center of Oncology.
as §1
(§3) Cells were seeded on a 96-well Nunc plate at a concentration of 5 × 10^3 cells per well in a volume of 100 μL of medium and cultured in a CO2 incubator at 37 °C until a monolayer was formed. […] After 48 h, the nutrient medium was removed from the plates and 100 µL of the nutrient medium without serum with MTT at a concentration of 0.5 mg/mL was added and incubated for 4 h at 37 °C. Formazan crystals were […] 100 µL of DMSO in each well. Optical density was recorded at 540 nm on an in vitro logic microplate reader (Russia). The experiments for all compounds were repeated in triplicate.
(§4) IC50 values were estimated using the Quest Graph IC50 Calculator (AAT Bioquest, Inc., Sunnyvale, CA, USA) (Version 2022) (accessed on 25 June 2022).

[3] = tested on: HuTu 80 cells (human duodenal adenocarcinoma); test: MTT cytotoxicity test, HuTu 80; details: Homo sapiens
From the text: as §2, §1, §3, §4

[4] = tested on: M-HeLa cells (human cervix epithelioid carcinoma); test: MTT cytotoxicity test, M-HeLa; details: Homo sapiens, M-HeLa; MTT test; 24 h incubation per text, 48 h per method
From the text: as §2, §1, §3, §4

[5] = HuTu80, read-out: IC50, HuTu 80
[6] = HuTu80, MTT test, 24 h incubation per text, 48 h per method, read-out: IC50, HuTu 80

Measured: IC50

COP(=O)(OC)C(c1cc(C(C)(C)C)c(O)c(C(C)(C)C)c1)c1ccc(NC(=O)Nc2ccccc2)nc1NC(=O)Nc1ccccc1 (centres unmarked) [5a]
> 70 µM: [1] | [2] | [3]; [5] | [4]

CC(C)OP(=O)(OC(C)C)C(c1cc(C(C)(C)C)c(O)c(C(C)(C)C)c1)c1ccc(NC(=O)Nc2ccccc2)nc1NC(=O)Nc1ccccc1 (centres unmarked) [5c]
> 70 µM: [1] | [2] | [3]; [6] | [4]

CC(C)(C)c1cc(C(c2ccc(NC(=O)Nc3ccccc3)nc2NC(=O)Nc2ccccc2)P(=O)(Oc2ccccc2)Oc2ccccc2)cc(C(C)(C)C)c1O (centres unmarked) [5d]
> 70 µM: [1] | [2] | [3]; [5] | [4]

COP(=O)(OC)C(c1cc(C(C)(C)C)c(O)c(C(C)(C)C)c1)c1ccc(NC(=O)Nc2ccccc2)cc1NC(=O)Nc1ccccc1 (centres unmarked) [6a]
> 70 µM: [1] | [2] | [3]; [5] | [4]

CCOP(=O)(OCC)C(c1cc(C(C)(C)C)c(O)c(C(C)(C)C)c1)c1ccc(NC(=O)Nc2ccccc2)cc1NC(=O)Nc1ccccc1 (centres unmarked) [6b]
> 70 µM: [1] | [2] | [3]; [5] | [4]

CC(C)(C)c1cc(C(c2ccc(NC(=O)Nc3ccccc3)cc2NC(=O)Nc2ccccc2)P(=O)(Oc2ccccc2)Oc2ccccc2)cc(C(C)(C)C)c1O (centres unmarked) [6d]
> 70 µM: [1] | [2] | [3]; [5] | [4]

COP(=O)(OC)C(c1cc(C(C)(C)C)c(O)c(C(C)(C)C)c1)c1ccc(NC(=O)Nc2cccc(C)c2)nc1NC(=O)Nc1cccc(C)c1 (centres unmarked) [8a]
> 70 µM: [1] | [2] | [3]; [5] | [4]

Cc1cccc(NC(=O)Nc2ccc(C(c3cc(C(C)(C)C)c(O)c(C(C)(C)C)c3)P(=O)(OC(C)C)OC(C)C)c(NC(=O)Nc3cccc(C)c3)n2)c1 (centres unmarked) [8c]
> 70 µM: [1] | [2] | [3]; [6] | [4]

Cc1cccc(NC(=O)Nc2ccc(C(c3cc(C(C)(C)C)c(O)c(C(C)(C)C)c3)P(=O)(Oc3ccccc3)Oc3ccccc3)c(NC(=O)Nc3cccc(C)c3)n2)c1 (centres unmarked) [8d]
> 70 µM: [1] | [2] | [3]; [5] | [4]

COP(=O)(OC)C(c1cc(C(C)(C)C)c(O)c(C(C)(C)C)c1)c1ccc(NC(=O)Nc2ccc(C)cc2)nc1NC(=O)Nc1ccc(C)cc1 (centres unmarked) [9a]
> 70 µM: [1] | [2] | [3]; [5] | [4]

CCOP(=O)(OCC)C(c1cc(C(C)(C)C)c(O)c(C(C)(C)C)c1)c1ccc(NC(=O)Nc2ccc(C)cc2)nc1NC(=O)Nc1ccc(C)cc1 (centres unmarked) [9b]
> 70 µM: [1] | [2] | [3]; [5] | [4]

Cc1ccc(NC(=O)Nc2ccc(C(c3cc(C(C)(C)C)c(O)c(C(C)(C)C)c3)P(=O)(OC(C)C)OC(C)C)c(NC(=O)Nc3ccc(C)cc3)n2)cc1 (centres unmarked) [9c]
> 70 µM: [1] | [2] | [3]; [6] | [4]

COc1ccc(NC(=O)Nc2ccc(C(c3cc(C(C)(C)C)c(O)c(C(C)(C)C)c3)P(=O)(OC)OC)c(NC(=O)Nc3ccc(OC)cc3)n2)cc1 (centres unmarked) [10a]
> 70 µM: [1] | [2] | [3]; [5] | [4]

COc1ccc(NC(=O)Nc2ccc(C(c3cc(C(C)(C)C)c(O)c(C(C)(C)C)c3)P(=O)(OC(C)C)OC(C)C)c(NC(=O)Nc3ccc(OC)cc3)n2)cc1 (centres unmarked) [10c]
> 70 µM: [1] | [2] | [3]; [6] | [4]

COc1ccc(NC(=O)Nc2ccc(C(c3cc(C(C)(C)C)c(O)c(C(C)(C)C)c3)P(=O)(Oc3ccccc3)Oc3ccccc3)c(NC(=O)Nc3ccc(OC)cc3)n2)cc1 (centres unmarked) [10d]
> 70 µM: [1] | [2] | [3]; [5] | [4]

CC(C)OP(=O)(OC(C)C)C(c1cc(C(C)(C)C)c(O)c(C(C)(C)C)c1)c1ccc(NC(=O)Nc2ccc(Cl)cc2)nc1NC(=O)Nc1ccc(Cl)cc1 (centres unmarked) [11c]
> 70 µM: [1] | [2] | [3]; [6] | [4]

CC(C)(C)c1cc(C(c2ccc(NC(=O)Nc3ccc(Cl)cc3)nc2NC(=O)Nc2ccc(Cl)cc2)P(=O)(Oc2ccccc2)Oc2ccccc2)cc(C(C)(C)C)c1O (centres unmarked) [11d]
> 70 µM: [1] | [2] | [3]; [5] | [4]

CC(C)OP(=O)(OC(C)C)C(c1cc(C(C)(C)C)c(O)c(C(C)(C)C)c1)c1ccc(NC(=O)Nc2ccc([N+](=O)[O-])cc2)nc1NC(=O)Nc1ccc([N+](=O)[O-])cc1 (centres unmarked) [12c]
> 70 µM: [1] | [2] | [3]; [5] | [4]

CC(C)(C)c1cc(C(c2ccc(NC(=O)Nc3ccc([N+](=O)[O-])cc3)nc2NC(=O)Nc2ccc([N+](=O)[O-])cc2)P(=O)(Oc2ccccc2)Oc2ccccc2)cc(C(C)(C)C)c1O (centres unmarked) [12d]
> 70 µM: [1] | [2] | [3]; [5] | [4]

Cc1cccc(NC(=O)Nc2ccc(C(c3cc(C(C)(C)C)c(O)c(C(C)(C)C)c3)P(=O)(Oc3ccccc3)Oc3ccccc3)c(NC(=O)Nc3cccc(C)c3)c2)c1 (centres unmarked) [13d]
> 70 µM: [1] | [2] | [3]; [5] | [4]

COP(=O)(OC)C(c1cc(C(C)(C)C)c(O)c(C(C)(C)C)c1)c1ccc(NC(=O)Nc2ccc(C)cc2)cc1NC(=O)Nc1ccc(C)cc1 (centres unmarked) [14a]
> 70 µM: [1] | [2] | [3]; [5] | [4]

Cc1ccc(NC(=O)Nc2ccc(C(c3cc(C(C)(C)C)c(O)c(C(C)(C)C)c3)P(=O)(Oc3ccccc3)Oc3ccccc3)c(NC(=O)Nc3ccc(C)cc3)c2)cc1 (centres unmarked) [14d]
> 70 µM: [1] | [2] | [3]; [5] | [4]

COc1ccc(NC(=O)Nc2ccc(C(c3cc(C(C)(C)C)c(O)c(C(C)(C)C)c3)P(=O)(OC)OC)c(NC(=O)Nc3ccc(OC)cc3)c2)cc1 (centres unmarked) [15a]
> 70 µM: [1] | [2] | [3]; [5] | [4]

COc1ccc(NC(=O)Nc2ccc(C(c3cc(C(C)(C)C)c(O)c(C(C)(C)C)c3)P(=O)(Oc3ccccc3)Oc3ccccc3)c(NC(=O)Nc3ccc(OC)cc3)c2)cc1 (centres unmarked) [15d]
> 70 µM: [1] | [2] | [3]; [5] | [4]

COP(=O)(OC)C(c1cc(C(C)(C)C)c(O)c(C(C)(C)C)c1)c1ccc(NC(=O)Nc2ccc(Cl)cc2)cc1NC(=O)Nc1ccc(Cl)cc1 (centres unmarked) [16a]
> 70 µM: [1] | [2] | [3]; [5] | [4]

CC(C)(C)c1cc(C(c2ccc(NC(=O)Nc3ccc(Cl)cc3)cc2NC(=O)Nc2ccc(Cl)cc2)P(=O)(Oc2ccccc2)Oc2ccccc2)cc(C(C)(C)C)c1O (centres unmarked) [16d]
> 70 µM: [1] | [2] | [3]; [5] | [4]

CC(C)(C)c1cc(C(c2ccc(NC(=O)Nc3ccc([N+](=O)[O-])cc3)cc2NC(=O)Nc2ccc([N+](=O)[O-])cc2)P(=O)(Oc2ccccc2)Oc2ccccc2)cc(C(C)(C)C)c1O (centres unmarked) [17d]
> 70 µM: [1] | [2] | [3]; [5] | [4]

COP(=O)(OC)C(c1cc(C(C)(C)C)c(O)c(C(C)(C)C)c1)c1ccc(NC(=S)Nc2ccccc2)nc1N (centres unmarked) [18a]
> 70 µM: [1] | [2] | [3]; [5] | [4]

CCOP(=O)(OCC)C(c1cc(C(C)(C)C)c(O)c(C(C)(C)C)c1)c1ccc(NC(=S)Nc2ccccc2)nc1N (centres unmarked) [18b]
> 70 µM: [1] | [2] | [3]; [5] | [4]

CC(C)(C)c1cc(C(c2ccc(NC(=S)Nc3ccccc3)nc2N)P(=O)(Oc2ccccc2)Oc2ccccc2)cc(C(C)(C)C)c1O (centres unmarked) [18d]
> 70 µM: [1] | [2] | [3]; [5] | [4]

CCOP(=O)(OCC)C(c1cc(C(C)(C)C)c(O)c(C(C)(C)C)c1)c1ccc(NC(=S)Nc2ccccc2)cc1NC(=S)Nc1ccccc1 (centres unmarked) [19b]
> 70 µM: [1] | [2] | [3]; [5] | [4]

CC(C)(C)c1cc(C(c2ccc(NC(=S)Nc3ccccc3)cc2NC(=S)Nc2ccccc2)P(=O)(Oc2ccccc2)Oc2ccccc2)cc(C(C)(C)C)c1O (centres unmarked) [19d]
> 70 µM: [1] | [2] | [3]; [5] | [4]

Source: paper PMC10454409, “Hybrids of Sterically Hindered Phenols and Diaryl Ureas: Synthesis, Switch from Antioxidant Activity to ROS Generation and Induction of Apoptosis” (International Journal of Molecular Sciences, 2023)
